Tests used:
human cell line G292 = test: Fixing of calcium by the osteoblast cell line G292; type: cell-based; design: Fixed calcium, Average: unit not given here; conditions: for Fixing the calcium (fixed calcium): G292, Example I, controls = 1,000
Procedure: (§1) More precisely, the process according to the invention consists of preparing a suspension of a human or animal osseous cell line, by adjusting the cellular density determined by turbidimetry or by calculating from a reference value, leaving to incubate for one to three days at 37° C. in the presence of carbon dioxide and of a complete culture medium (CCM), adding to some wells an agent inhibiting the fixing of calcium or a calciotropic hormone, and some extract to be titrated, eliminating the supernatants from the culture, rinsing out the wells with a rinsing medium without calcium or magnesium (P.B.S. for example) in such a way as to eliminate the non-fixed calcium from the culture medium, eliminating the supernatant fractions, and adjusting the volume of the dispersion with a fixed volume of mineral acid such as hydrochloric acid, sulphuric acid, phosphoric acid or perchloric acid or with any other product capable of destroying the extracellular matrix built up by the cells being cultured. […] NT-690.005.
(§2) The material to be tested is dosed on a cell culture. An analysis is carried out of the calcium fixed by the osseous cells. To do this, the calcium fixed by an osteoblastic cell line is dosed. In a non-limiting way, UMR 106 and G292, in the presence or not of deleterious agents such as the Inh-Ca and the IL-1 may be cited. The preparation to be analysed will also itself be tested, on the same cell line in the presence or not of agents such as Inh-Ca and IL-1.
In these same conditions, calcium fixed by the same cell line in the presence of estradiol is dosed and a calibration scale is produced, expressed in weight of estradiol This calibration scale ranges from 10^−3 to 10^−10 mol of estradiol or more frequently between 10^−7 and 10^−9 mol of estradiol. In this way, it is possible to establish a correlation between the activity of the extract of Padina and an active quantity of estradiol. We should stress that this comparison is made between the activity of estradiol directly on the cell culture with the active extract of Padina in the presence of deleterious agents such as an Inh-Ca or IL-1. So it is not a true weight comparison and it is proposed that the result should be expressed in Units of Activity (UA). A unit of activity is defined as the quantity of extract capable of increasing by 50% the quantity of calcium fixed by 400,000 cells cultivated for 48 hours in the presence of 1 ng of interleukin 1 per 1 ml well. The IL-1 can be replaced by another agent inhibiting the fixing of calcium at an equi-active dose.
The extracts of Padina have been described, in particular in the European patent application EP 0.655.250. The algae is then depleted after drying, by a hydrocarbonated solvent such as cyclohexane or acetone, the vegetable matter is separated, and the extracted product is filtered then evaporated until dry. A quantity of dry extract weighed precisely is then dissolved in ethanol. Determining its activity is the object of the present invention. In concrete terms, the process according to the invention consists of preparing a suspension of culture of the human cell line G292 (ECAC no. 901-110522), adjusting the cell density to 400,000 cells per ml of complete culture medium (CCM), supplemented by 10% of fetal calf serum. The cell suspension is distributed at the rate of 1 ml per well on plates of 24 wells. It is left to incubate overnight in an atmosphere of CO2 at 37°. The supernatants are separated then dilution is carried out by a new addition of CCM. An aliquot fraction of IL-1 is prepared and 5 μl of interleukin IL1 solution is added, namely 1 ng per well in the wells for the cells which receive only one inhibiting treatment per IL-1.
(§3) For each trial of solution to be titrated, 5 μl of solution of Padina extract is added. It is then left to incubate for the length of time necessary to carry out the trial, normally between 24 and 72 hours, and preferably 48 hours. […]

Osteoblasts = test: Fixing of calcium by osteoblasts (Example I); type: cell-based
Procedure: as §1
The extracts or powders of the algae Padina pavonica have the effect of stimulating biological activity (synthesis of proteins and glycoaminoglycanes) but also act to restore physiological functions such as the fixing of calcium by osteogenic cells. For this, the fixed calcium is dosed with a fixed cell line, such as for example the cell line UMR 106 or the line G 292, in the presence or not of deleterious agents such as inhibitors of the calcic canals and pro-inflammatory agents such as IL 1. Normal osteoblasts give good results, but their availability presents a problem. The preparation to be analysed is tested in parallel on the same cell line, in the presence or not of these same deleterious agents. The quantity of fixed calcium in relation to that obtained with the calciotropic agent and with those obtained in the presence of agents inhibiting the fixing of calcium are compared.
as §2, §3

[1] = calcic inhibitor alone, 10 μg, control 1.194
[2] = agent in the presence of IL-1, controls = 1,000

SMILES | Fixed calcium, Average (human cell line G292; [1]) | Fixing the calcium (fixed calcium) (Osteoblasts; agent alone, controls = 1,000) | Fixing the calcium (fixed calcium) (Osteoblasts; [2]) | Fixed calcium, Average (human cell line G292; Estradiol 10^−7 alone, control 1.194) | Fixed calcium, Average (human cell line G292; Estradiol 10^−8 alone, control 1.194) | Fixed calcium, Average (human cell line G292; Estradiol 10^−9 alone, control 1.194) | Fixed calcium, Average (human cell line G292; Estradiol + Cinchonine, control 1.194, Cinchonine 0.059) | Fixed calcium, Average (human cell line G292; Estradiol + IL-1, control 1.194, IL-1 0.315) | Fixed calcium, Average (human cell line G292; Estradiol + Verapamil, control 1.194, Verap 0.383) | Fixing the calcium (fixed calcium) (human cell line G292; agent alone) | Fixing the calcium (fixed calcium) (human cell line G292; agent in the presence of IL-1)
C=C[C@H]1C[N@@]2CC[C@H]1C[C@@H]2[C@@H](O)c1ccnc2ccccc12 [Cinchonine] | 0.059 | – | – | – | – | – | – | – | – | – | –
C[C@]12CC[C@@H]3c4ccc(O)cc4CC[C@H]3[C@@H]1CC[C@@H]2O [Est, Estradiol] | – | 1,843 | 0,200 | 1.151 | 1.115 | 0.706 | 0.357 | 0.357 | 0.373 | 2,648 | 0,070
C=C1CC[C@H](O)C/C1=C/C=C1\CCC[C@]2(C)[C@@H]([C@H](C)CCCC(C)C)CC[C@@H]12 [D3, Vitamin D3] | – | 1,215 | 0,125 | – | – | – | – | – | – | 1,540 | 0,070
COc1ccc(CCN(C)CCCC(C#N)(c2ccc(OC)c(OC)c2)C(C)C)cc1OC (stereo not shown) [Verap, Verapamil] | 0.383 | – | – | – | – | – | – | – | – | – | –

From patent US7122337B2, “Method for determining calciotropic activity of a preparation of Padina pavonic algae” (Texinfine SA, priority 2001, dated 2006)
